Values quoted from earlier work, collected in patent US20100035755A1, “METHOD OF CONTROLLING WEEDS IN A TURF GRASS BY USING SULFONYLUREA COMPOUNDS” (Moghu Research Center Ltd., priority 2008, published 2010).
Like-named read-outs stand apart in the source and are kept apart here.

Columns and labels:
[1] = test system: cool season turf grass; details: cited from earlier work
[2] = test system: Poa annua; details: background statement on existing herbicides; cited from earlier work
[3] = test system: warm season turf grass; details: cited from earlier work
[4] = background statement, creeping bentgrass, Kentucky bluegrass
[5] = background statement, zoysiagrass, Burmudagrass

| Compound | safety to cool season turf grass [1, 4] | controlling Poa annua [2] | safety to warm season turf grass [3, 5] | safety to cool season turf grass ([1]; in vivo) | safety to warm season turf grass ([3]; in vivo) |
| --- | --- | --- | --- | --- | --- |
| COC(=O)c1c(Cl)nn(C)c1S(=O)(=O)NC(=O)Nc1nc(OC)cc(OC)n1 [R. 3, Halosulfuron-methyl] | safe | ineffective | safe | – | – |
| COc1cc(OC)nc(NC(=O)NS(=O)(=O)Nc2ccccc2C(=O)C2CC2)n1 [R. 4, Cyclosulfamuron] | – | ineffective | – | safe | safe |
| COc1cc(OC)nc(NC(=O)NS(=O)(=O)c2ncccc2OCC(F)(F)F)n1 [R. 2, Trifloxysulfuron] | no safety | – | have a safety | – | – |
